Assay results: US6352977B1, “Substituted β-alanines” (Aventis Pharma Limited, priority 1998, dated 2002)

Row | SMILES | melting point [°C]
1 | COc1cc(CC(=O)N(C)CC(=O)N(CCCN2CCCC2=O)CCC(=O)O)ccc1NC(=O)Nc1ccccc1C | 73 to 76
2 | COc1cc(CC(=O)N(C)CC(=O)N(CCC(=O)O)Cc2ccc(OC)c(OC)c2)ccc1NC(=O)Nc1ccccc1C | 183 to 187
